# Measured values taken from patent publication US20260356824A1, “COMPOUNDS FOR TREATING FIBROTIC DISEASES” (Meta-Immue Inc., priority 2023, published 2026).
# How the values were obtained:
# hLPAR1 = target: T1, hLPAR1 (Homo sapiens, UniProt Q92633); test: Ca2+ Flux Assay (B103 cells stably expressing hLPAR1); assay type: cell-based; settings: LPA-induced calcium release, Fura-2 AM, compound 20 min at RT
# T1 construct: expressed in transfected cells
# Description: B103 cells stably expressing hLPAR1 were seeded at a density of 1.0×10^5 cells per well in clear flat-bottom black 96-well plates and incubated overnight in complete media. The following day, the cells were pre-incubated in serum-free media for 2 hours prior to ensure cellular equilibration. For the loading a calcium-sensitive fluorescent dye, the cells were treated with a concentration of 5 μM Fura-2 AM dye (Sigma, F1225) in Hank's buffered salt solution (HBSS) supplemented with 20 mM HEPES, […], and 0.3% fatty-acid-free bovine serum albumin for 40 minutes at room temperature (RT). Test compounds, prepared in DMSO, were then added to each well and incubated for 20 minutes at RT. To induce calcium release, a concentration of […] in HBSS supplemented with 20 mM HEPES, and 0.3% fatty-acid-free bovine serum albumin was introduced. Intracellular calcium mobilization was subsequently quantified by monitoring the fluorescence intensity using the Spark® multimode microplate reader (TECAN).
# BSEP = target: T2, BSEP (Homo sapiens, UniProt O95342); test: Bile Salt Export Pump (BSEP) Assay, Sf9 insect cell vesicles expressing BSEP; assay type: in vitro ADME; settings: 10 μM test compound, probe substrate 1 μM [3H]-taurocholic acid, 15 min incubation
# T2 construct: ATP-dependent uptake of radiolabelled probe substrate
# T2 sequence (O95342 whole entry): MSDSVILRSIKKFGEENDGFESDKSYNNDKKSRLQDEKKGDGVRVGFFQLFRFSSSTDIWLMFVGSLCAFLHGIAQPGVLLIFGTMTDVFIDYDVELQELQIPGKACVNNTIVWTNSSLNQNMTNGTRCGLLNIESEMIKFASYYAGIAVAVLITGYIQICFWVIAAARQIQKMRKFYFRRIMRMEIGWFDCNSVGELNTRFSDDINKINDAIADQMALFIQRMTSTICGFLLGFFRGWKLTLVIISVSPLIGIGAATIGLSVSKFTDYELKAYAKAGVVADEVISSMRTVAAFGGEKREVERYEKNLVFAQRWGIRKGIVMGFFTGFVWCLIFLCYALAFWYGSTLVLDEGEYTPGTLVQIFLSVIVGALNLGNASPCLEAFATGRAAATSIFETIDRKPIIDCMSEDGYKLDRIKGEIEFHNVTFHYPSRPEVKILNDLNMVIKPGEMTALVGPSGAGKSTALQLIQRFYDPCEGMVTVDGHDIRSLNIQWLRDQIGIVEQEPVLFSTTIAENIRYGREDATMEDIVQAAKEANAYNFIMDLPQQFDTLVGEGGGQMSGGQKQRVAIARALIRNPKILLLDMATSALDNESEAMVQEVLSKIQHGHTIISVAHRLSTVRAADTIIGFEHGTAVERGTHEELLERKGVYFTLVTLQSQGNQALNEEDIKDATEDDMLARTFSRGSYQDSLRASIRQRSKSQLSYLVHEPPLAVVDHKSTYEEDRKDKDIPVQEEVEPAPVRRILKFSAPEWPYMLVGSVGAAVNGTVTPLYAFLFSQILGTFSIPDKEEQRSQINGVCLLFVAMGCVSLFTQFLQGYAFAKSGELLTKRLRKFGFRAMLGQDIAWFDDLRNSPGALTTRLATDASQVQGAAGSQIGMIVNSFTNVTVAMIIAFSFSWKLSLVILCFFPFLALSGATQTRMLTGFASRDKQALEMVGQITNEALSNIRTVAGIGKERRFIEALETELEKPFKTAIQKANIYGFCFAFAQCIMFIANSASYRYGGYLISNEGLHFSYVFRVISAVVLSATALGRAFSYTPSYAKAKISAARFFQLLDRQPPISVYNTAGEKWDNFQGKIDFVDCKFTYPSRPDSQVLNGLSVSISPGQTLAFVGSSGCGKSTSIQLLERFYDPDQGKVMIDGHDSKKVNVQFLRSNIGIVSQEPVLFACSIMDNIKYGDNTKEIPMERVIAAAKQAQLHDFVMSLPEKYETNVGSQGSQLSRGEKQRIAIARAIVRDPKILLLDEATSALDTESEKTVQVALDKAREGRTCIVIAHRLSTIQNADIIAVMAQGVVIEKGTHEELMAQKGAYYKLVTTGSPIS
# Description: • 1. A stock solution was prepared with the test article (Sponsor compound) in DMSO. • 2. All final assay solutions of probe substrate, reference inhibitor or test article contain 0.5% (v/v) DMSO (vehicle control). • 3. Test article concentrations in transport study were specified in the Summary Table of Experimental Conditions of this protocol.
# • 1. Bovine Serum Albumin (BSA) • 2. Dimethyl sulfoxide (DMSO) • 3. BSEP Assay Uptake Buffer (10 mM HEPES-Tris pH 7.4, 0.1 M KNO3, 12.5 mM Mg(NO3)2, 50 mM sucrose) • 4. BSEP Wash Buffer (10 mM Tris-HCl pH 7.4, 0.1 M KNO3, 50 mM sucrose) • 5. BSEP Blocking Buffer (BSEP Wash Buffer+0.5 mg/mL BSA) • 6. 25 mM Mg-ATP solution • 7. 25 mM AMP solution • 8. Corning Costar 96-well flat-bottom, untreated, white Assay Plate (Corning Cat. No. 3912) • 9. Millipore MultiscreenHTs Filtration Plate, glass fiber FB—1.0/0.65 μm (Cat. No. MSFBN6B10 or glass fiber FC—1.2/0.65 μm (Cat. No. MSFCN6B10) • 10. Millipore MultiscreenHTS Vacuum Manifold (Cat. No. MSVMHTS00) • 11. Probe substrates listed in Table 1 • 12. Reference inhibitors listed in Table 1 • 13. Test articles
# • 1. Test system: • a. 96-well flat bottom plate containing a suspension of vesicles and a corresponding 96-well glass fiber filtration plate. • b. Transport experiments were conducted in the Assay Uptake Buffer. • c. Transport experiment was initiated with the addition of Mg-ATP or AMP to appropriate wells. • d. Each condition was run in triplicate wells. • 2. Prepared the 96-well flat-bottom assay plate. • a. Incubated the assay plate with the Blocking Buffer for 60 min at 37 °C with orbital shaking at approximately 90 rpm. (NOTE: This is done to prevent non-specific binding of vesicles to polystyrene assay plate). • b. After 60 min, completely removed the Blocking Buffer from the assay plate. • c. The Assay Uptake Buffer solutions were added to the assay plate wells as follows: • i. For probe substrate transport assays, the Assay Uptake Buffer contained vesicles and the probe substrate at the specified concentration. • ii. For the reference inhibition assay, the Assay Uptake Buffer contained vesicles, the reference inhibitor and the probe substrate at the specified concentration in Table 1. • iii. For the test article assays, Assay Uptake Buffer contained vesicles, the test article and the probe substrate at the specified concentration in Table 1. • 3. Incubate at 37 °C with orbital shaking at approximately 90 rpm for the time period specified in Table 1 of this protocol. • 4. Using the 25 mM Mg-ATP or AMP stocks, Mg-ATP or AMP was added to test wells of flat bottom assay plate to a final concentration of 5 mM. • 5. Incubated at 37 °C with orbital shaking at approximately 90 rpm for the incubation time specified in Table 1 of this protocol. • 6. Prepared the 96-well glass fiber filtration plate: • a. Incubated the filtration plate with the Blocking Buffer for 2 min at room temperature with under no vacuum. • b. Turned on vacuum and allowed Blocking Buffer to filter through plate. • c. With vacuum on, filter plate was washed with ice cold Wash Buffer. • 7. At the end of the specified incubation time indicated in […] of this protocol, vesicle transport was quenched by adding ice cold Wash Buffer to samples in 96-well assay plate. • 8. Mixed assay samples (now diluted in Wash Buffer) with pipette and transfered 175 μL into the 96-well glass fiber filtration plate to separate vesicles from buffer by applying vacuum. • 9. Washed filter plate wells with ice cold Wash Buffer. • 10. Allowed filter plate to dry under vacuum. • 11. Transfered filters to scintillation sample plate and added 700 μL of scintillation fluid to the above samples. • 12. Counted the above samples on a 1450 Microbeta (Perkin-Elmer).
# • 1. The amount of substrate was quantified with radiometric detection on a 1450 Microbeta (Perkin-Elmer). • 2. For transport study samples run in triplicate, the mean and standard deviation of the replicates were reported. • 3. […]
# A2058 cells = test: Chemotaxis Assay (LPA-induced migration of A2058 cells); assay type: cell-based; settings: Homo sapiens, 4 to 8 hours, crystal violet 590 nm
# Description: For monitoring the migration of cells, Neuroprobe ChemoTx® System plates ([…], 5.7 mm diameter sites; Gaithersburg, MD, USA) were utilized. To induce cell migrations, a concentration of […] or vehicle in DMEM were loaded to the bottom chamber. A total of 15,000 A2058 cells, which were starved for 24 hr following treated with test compounds or vehicle, were then applied to the upper membrane coated with 0.001% fibronectin. The plate was incubated for 4 to 8 hours to allow cell migration. Following incubation, the plate was dissembled, and the migrated cells were visualized by crystal violet staining. The stained area with crystal violet was quantified by measuring the absorbance at 590 nm and the relative percentage of the control was calculated.
# T1 sequence (Q92633 whole entry): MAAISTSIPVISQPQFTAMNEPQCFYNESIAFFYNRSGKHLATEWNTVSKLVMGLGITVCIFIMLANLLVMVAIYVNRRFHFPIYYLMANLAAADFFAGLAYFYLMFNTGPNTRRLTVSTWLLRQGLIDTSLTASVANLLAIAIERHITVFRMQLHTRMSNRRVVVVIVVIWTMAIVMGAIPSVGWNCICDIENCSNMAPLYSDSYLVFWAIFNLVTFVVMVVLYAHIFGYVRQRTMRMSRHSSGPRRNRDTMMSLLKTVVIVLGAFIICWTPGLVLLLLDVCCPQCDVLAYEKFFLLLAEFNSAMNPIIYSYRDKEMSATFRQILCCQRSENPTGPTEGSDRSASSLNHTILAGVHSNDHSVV
IC50 (hLPAR1) [nM],IC50 (A2058 cells) [nM],Structure (SMILES),"inhibition at 0.25 h, 10 µM (BSEP) [%]"
< 10,< 100,"COc1cc(C2(C(=O)O)CC2)ccc1N1CCC(c2onc(C)c2NC(=O)O[C@H](C)c2ccccc2)CC1 [Compound 63, (R)-1-(3-methoxy-4-(4-(3-methyl-4-(((1-phenylethoxy)carbonyl)amino)isoxazol-5-yl)piperidin-1-yl)phenyl)cyclopropane-1-carboxylic acid]",≤ 25
10 to 200,100 to 500,CNC(=O)C1(c2ccc(N3CCC(c4onc(C)c4NC(=O)O[C@H](C)c4ccccc4)CC3)cc2)CC1 [Compound 65],50 to 75
10 to 200,< 100,"Cc1noc(C2CC3(C2)CN(c2ccc(C4(C(=O)O)CC4)cc2)C3)c1NC(=O)O[C@H](C)c1ccccc1 [Compound 54, 1-(4-{6-[3-methyl-4-({[(1R)-1-phenylethoxy]carbonyl}amino)-1,2-oxazol-5-yl]-2-azaspiro[3.3]heptan-2-yl}phenyl)cyclopropane-1-carboxylic acid]",25 to 50
< 10,< 100,"Cc1noc(C2CCN(c3ccc(C4(C(=O)O)CC4)cc3)CC2)c1NC(=O)O[C@H](C)c1ccccc1Cl [Compound 74, 1-(4-{4-[4-({[(1R)-1-(2-chlorophenyl)ethoxy]carbonyl}amino)-3-methyl-1,2-oxazol-5-yl]piperidin-1-yl}phenyl)cyclopropane-1-carboxylic acid]",50 to 75
< 10,< 100,Cc1ccccc1[C@@H](C)OC(=O)Nc1c(C)noc1C1CC2(C1)CN(c1ccc(C3(C(=O)NS(C)(=O)=O)CC3)cc1)C2 [Compound 7],75 to 100
< 10,< 100,Cc1cc(C2(C(=O)O)CC2)ccc1N1CCC(c2onc(C)c2NC(=O)O[C@H](C)c2ccccc2)CC1 [Compound 61],50 to 75
10 to 200,< 100,"C[C@@H](OC(=O)Nc1cc(Cl)sc1C1CCN(c2ccc(C3(C(=O)O)CC3)cc2)CC1)c1ccccc1 [Compound 92, 1-(4-{4-[5-chloro-3-({[(1R)-1-phenylethoxy]carbonyl}amino)thiophen-2-yl]piperidin-1-yl}phenyl)cyclopropane-1-carboxylic acid]",75 to 100
< 10,100 to 500,C[C@@H](OC(=O)Nc1c(C2CCN(c3ccc(C4(C(=O)NS(=O)(=O)CCO)CC4)cc3)CC2)nnn1C)c1ccccc1 [Compound 59],≤ 25
10 to 200,100 to 500,"C[C@@H](OC(=O)Nc1c(C2CCN(c3ccc(C4(C(=O)NS(=O)(=O)CC(=O)O)CC4)cc3)CC2)nnn1C)c1ccccc1 [Compound 58, 2-[[1-[4-[4-[1-methyl-5-[[(1R)-1-phenylethoxy]carbonylamino]triazol-4-yl]-1piperidyl]phenyl]cyclopropanecarbonyl]sulfamoyl]acetic acid]",≤ 25
10 to 200,100 to 500,Cc1noc(C2CCN(c3ccc(C4(C(=O)O)CC4)nc3)CC2)c1NC(=O)O[C@H](C)c1ccccc1 [Compound 90],25 to 50
< 10,< 100,"Cc1noc(C2CCN(c3ccc(C4(C(=O)NS(=O)(=O)CC(C)(C)C(=O)O)CC4)cc3)CC2)c1NC(=O)O[C@H](C)c1ccccc1 [Compound 78, (R)-2,2-dimethyl-3-(N-(1-(4-(4-(3-methyl-4-(((1-phenylethoxy)carbonyl)amino)isoxazol-5-yl)piperidin-1-yl)phenyl)cyclopropane-1-carbonyl)sulfamoyl)propanoic acid]",25 to 50
10 to 200,100 to 500,Cc1noc(C2CCN(c3ccc(C4(C(=O)O)CC4)cc3)CC2)c1C(O)CCCc1ccccc1 (stereo not drawn) [Compound 20],75 to 100
10 to 200,100 to 500,C[C@@H](OC(=O)Nc1c(C2CCN(c3ccc(C4(C(=O)O)CC4)cc3)CC2)cnn1C)c1ccccc1 [Compound 55],25 to 50
< 10,100 to 500,Cc1noc(C2CC3(C2)CN(c2ccc(C4(C(=O)NS(C)(=O)=O)CC4)cc2)C3)c1NC(=O)O[C@H](C)c1ccccc1 [Compound 9],50 to 75
< 10,< 100,"Cc1ccccc1[C@@H](C)OC(=O)Nc1c(C)noc1C1CC2(C1)CN(c1ccc(C3(C(=O)O)CC3)cc1)C2 [Compound 33, 1-(4-{6-[3-methyl-4-({[(1R)-1-(2-methylphenyl)ethoxy]carbonyl}amino)-1,2-oxazol-5-yl]-2-azaspiro[3.3]heptan-2-yl}phenyl)cyclopropane-1-carboxylic acid]",75 to 100
< 10,< 100,"CCc1ccccc1[C@@H](C)OC(=O)Nc1c(C)noc1C1CCN(c2ccc(C3(C(=O)NS(=O)(=O)CCC(=O)O)CC3)cc2)CC1 [Compound 37, 3-({[1-(4-{4-[4-({[(1R)-1-(2-ethylphenyl)ethoxy]carbonyl}amino)-3-methyl-1,2-oxazol-5-yl]piperidin-1-yl}phenyl)cyclopropyl]formamido}sulfonyl)propanoic acid]",50 to 75
< 10,< 100,Cc1noc(C2CCN(c3ccc(C4(C(=O)NS(=O)(=O)C(C)C(=O)O)CC4)cc3)CC2)c1NC(=O)O[C@H](C)c1ccccc1 (stereo partly drawn) [Compound 71],25 to 50
< 10,< 100,Cc1noc(C2CCN(c3ccc(C4(C(=O)NS(=O)(=O)C(C)CC(=O)O)CC4)cc3)CC2)c1NC(=O)O[C@H](C)c1ccccc1 (stereo partly drawn) [Compound 72],≤ 25
< 10,< 100,"COc1ccc(C2CCN(c3ccc(C4(C(=O)O)CC4)cc3)CC2)c(NC(=O)O[C@H](C)c2ccccc2)c1 [Compound 19, (R)-1-(4-(4-(4-methoxy-2-(((1-phenylethoxy)carbonyl)amino)phenyl)piperidin-1-yl)phenyl)cyclopropane-1-carboxylic acid]",50 to 75
